Assay results published in US20070154449A1, “TIGHT JUNCTION MODULATING PEPTIDES FOR ENHANCED MUCOSAL DELIVERY OF THERAPEUTIC COMPOUNDS” (Nastech Pharmaceutical Company Inc., priority 2005, published 2007).

Legend:
[1] = test system: in vitro epithelial tissue model; experiment: Cell viability (MTT assay), in vitro epithelial tissue model; details: galantamine lactate 40 mg/ml and PN159 at all concentrations tested (25, 50, 100 μM)
[2] = Intranasal PYY pharmacokinetics in rabbits with PN159 or small molecule enhancers (Example 5); type: in vivo, New Zealand White rabbits; details: for PYY plasma concentration: mean of 4 rabbits; for AUCINF (Mean) / AUClast (Mean) / Cmax (Mean) / Tmax (Mean) / t½ (Mean): PYY in plasma, rabbit; for Relative AUC last / Relative Cmax: PYY, rabbit intranasal
Protocol: Twenty male New Zealand White rabbits age 3-6 months and weighing 2.1-3.0 kg were randomly assigned into one of 5 treatment groups with four animals per group. Test animals were dosed at 15 μl/kg and intranasally via pipette. Table 6 below indicates the composition of five different dose groups.
For dosing group 1 (see Table 6) a clinical formulation of PYY including small molecule permeation enhancers was used. The small molecule enhancers in these studies included methyl-β-cyclodextrin, phosphatidylcholine didecanoyl (DDPC), and/or EDTA. Dosing group 2 received PYY dissolved in phosphate buffered saline (PBS). For dosing groups 3-5, various concentrations of PN159 were added to dosing group 2, so that each of dosing groups 3 to 5 consisted of PYY, PN159, and PBS.
Serial blood samples (about 2 ml each) were collected by direct venipuncture from a marginal ear vein into blood collection tubes containing EDTA as an anticoagulant. Blood samples were collected at 0, 2.5, 5, 10, 15, 30, 45, 60, and 120 minutes post-dosing. After collection of the blood, the tubes were gently rocked several times for anti-coagulation, and then 50 μl aprotinin solution was added. The blood was centrifuged at approximately 1,600×g for 15 minutes at approximately 4° C., and plasma samples were dispensed into duplicate aliquots and stored frozen at approximately −70° C.

[3] = Group 3: PYY 205 μg/kg intranasal with 25 μM PN159
[4] = Group 4: PYY 205 μg/kg intranasal with 50 μM PN159
[5] = Group 5: PYY 205 μg/kg intranasal with 100 μM PN159
[6] = Group 3 (PN159, 25 μm) compared with Group 2 (no enhancer)
[7] = Group 4 (PN159, 50 μm) compared with Group 2 (no enhancer)
[8] = Group 5 (PN159, 100 μm) compared with Group 2 (no enhancer)

Compound: CC(C)C[C@H](NC(=O)[C@H](C)NC(=O)[C@H](CCCCN)NC(=O)[C@H](CC(C)C)NC(=O)[C@H](C)NC(=O)[C@H](CC(C)C)NC(=O)[C@H](CCCCN)NC(=O)[C@H](CC(C)C)NC(=O)[C@H](C)NC(=O)[C@H](CC(C)C)NC(=O)[C@@H](N)CCCCN)C(=O)N[C@@H](CCCCN)C(=O)N[C@@H](C)C(=O)N[C@@H](C)C(=O)N[C@@H](CC(C)C)C(=O)N[C@@H](CCCCN)C(=O)N[C@@H](CC(C)C)C(=O)N[C@@H](C)C(N)=O [PN159]
- Cell viability (MTT) [1]: > 80%
- PYY plasma concentration ([2]; Group 3: PYY 205 μg/kg intranasal with 25 μM PN159, 0 min): 228.675
- PYY plasma concentration ([2]; Group 3: PYY 205 μg/kg intranasal with 25 μM PN159, 2.5 min): 526.375
- PYY plasma concentration ([2]; Group 3: PYY 205 μg/kg intranasal with 25 μM PN159, 5 min): 1430.15
- PYY plasma concentration ([2]; Group 3: PYY 205 μg/kg intranasal with 25 μM PN159, 10 min): 6521.7
- PYY plasma concentration ([2]; Group 3: PYY 205 μg/kg intranasal with 25 μM PN159, 15 min): 12563.075
- PYY plasma concentration ([2]; Group 3: PYY 205 μg/kg intranasal with 25 μM PN159, 30 min): 15222.6
- PYY plasma concentration ([2]; Group 3: PYY 205 μg/kg intranasal with 25 μM PN159, 45 min): 9081.125
- PYY plasma concentration ([2]; Group 3: PYY 205 μg/kg intranasal with 25 μM PN159, 60 min): 4843.15
- PYY plasma concentration ([2]; Group 3: PYY 205 μg/kg intranasal with 25 μM PN159, 120 min): 1224.2
- PYY plasma concentration ([2]; Group 4: PYY 205 μg/kg intranasal with 50 μM PN159, 0 min): 424.4
- PYY plasma concentration ([2]; Group 4: PYY 205 μg/kg intranasal with 50 μM PN159, 2.5 min): 749.975
- PYY plasma concentration ([2]; Group 4: PYY 205 μg/kg intranasal with 50 μM PN159, 5 min): 1293.4
- PYY plasma concentration ([2]; Group 4: PYY 205 μg/kg intranasal with 50 μM PN159, 10 min): 12517.2
- PYY plasma concentration ([2]; Group 4: PYY 205 μg/kg intranasal with 50 μM PN159, 15 min): 34455.3
- PYY plasma concentration ([2]; Group 4: PYY 205 μg/kg intranasal with 50 μM PN159, 30 min): 35294.375
- PYY plasma concentration ([2]; Group 4: PYY 205 μg/kg intranasal with 50 μM PN159, 45 min): 21582.225
- PYY plasma concentration ([2]; Group 4: PYY 205 μg/kg intranasal with 50 μM PN159, 60 min): 9461.925
- PYY plasma concentration ([2]; Group 4: PYY 205 μg/kg intranasal with 50 μM PN159, 120 min): 2337.775
- PYY plasma concentration ([2]; Group 5: PYY 205 μg/kg intranasal with 100 μM PN159, 0 min): 294.225
- PYY plasma concentration ([2]; Group 5: PYY 205 μg/kg intranasal with 100 μM PN159, 2.5 min): 1748.225
- PYY plasma concentration ([2]; Group 5: PYY 205 μg/kg intranasal with 100 μM PN159, 5 min): 3088.2
- PYY plasma concentration ([2]; Group 5: PYY 205 μg/kg intranasal with 100 μM PN159, 10 min): 14486.6
- PYY plasma concentration ([2]; Group 5: PYY 205 μg/kg intranasal with 100 μM PN159, 15 min): 20882.725
- PYY plasma concentration ([2]; Group 5: PYY 205 μg/kg intranasal with 100 μM PN159, 30 min): 25470.475
- PYY plasma concentration ([2]; Group 5: PYY 205 μg/kg intranasal with 100 μM PN159, 45 min): 16499.55
- PYY plasma concentration ([2]; Group 5: PYY 205 μg/kg intranasal with 100 μM PN159, 60 min): 10676.625
- PYY plasma concentration ([2]; Group 5: PYY 205 μg/kg intranasal with 100 μM PN159, 120 min): 1891.275
- AUCINF (Mean) [2, 3]: 796354.7 pg·min/mL
- AUClast (Mean) [2, 3]: 748104.1 pg·min/mL
- Cmax (Mean) [2, 3]: 15.53395 ng/mL
- Tmax (Mean) [2, 3]: 22.5 min
- t½ (Mean) [2, 3]: 24.8467 min
- AUCINF (Mean) [2, 4]: 1787348 pg·min/mL
- AUClast (Mean) [2, 4]: 1692499 pg·min/mL
- Cmax (Mean) [2, 4]: 40.99553 ng/mL
- Tmax (Mean) [2, 4]: 26.25 min
- t½ (Mean) [2, 4]: 25.5355 min
- AUCINF (Mean) [2, 5]: 1518949 pg·min/mL
- AUClast (Mean) [2, 5]: 1384241 pg·min/mL
- Cmax (Mean) [2, 5]: 27.9744 ng/mL
- Tmax (Mean) [2, 5]: 33.75 min
- t½ (Mean) [2, 5]: 20.4628 min
- Relative AUC last [2, 6]: 21×
- Relative Cmax [2, 6]: 30×
- Relative AUC last [2, 7]: 46×
- Relative Cmax [2, 7]: 79×
- Relative AUC last [2, 8]: 38×
- Relative Cmax [2, 8]: 54×
